In general, IC50 refers to the concentration that inhibits the measured activity by half.

In the assay the target is T1, full-length beta-Catenin (Uniprot ID P35222) (Homo sapiens, UniProt P35222).
T1 construct: 10 nM full-length beta-Catenin (Uniprot ID P35222)
T1 sequence (P35222 1-781): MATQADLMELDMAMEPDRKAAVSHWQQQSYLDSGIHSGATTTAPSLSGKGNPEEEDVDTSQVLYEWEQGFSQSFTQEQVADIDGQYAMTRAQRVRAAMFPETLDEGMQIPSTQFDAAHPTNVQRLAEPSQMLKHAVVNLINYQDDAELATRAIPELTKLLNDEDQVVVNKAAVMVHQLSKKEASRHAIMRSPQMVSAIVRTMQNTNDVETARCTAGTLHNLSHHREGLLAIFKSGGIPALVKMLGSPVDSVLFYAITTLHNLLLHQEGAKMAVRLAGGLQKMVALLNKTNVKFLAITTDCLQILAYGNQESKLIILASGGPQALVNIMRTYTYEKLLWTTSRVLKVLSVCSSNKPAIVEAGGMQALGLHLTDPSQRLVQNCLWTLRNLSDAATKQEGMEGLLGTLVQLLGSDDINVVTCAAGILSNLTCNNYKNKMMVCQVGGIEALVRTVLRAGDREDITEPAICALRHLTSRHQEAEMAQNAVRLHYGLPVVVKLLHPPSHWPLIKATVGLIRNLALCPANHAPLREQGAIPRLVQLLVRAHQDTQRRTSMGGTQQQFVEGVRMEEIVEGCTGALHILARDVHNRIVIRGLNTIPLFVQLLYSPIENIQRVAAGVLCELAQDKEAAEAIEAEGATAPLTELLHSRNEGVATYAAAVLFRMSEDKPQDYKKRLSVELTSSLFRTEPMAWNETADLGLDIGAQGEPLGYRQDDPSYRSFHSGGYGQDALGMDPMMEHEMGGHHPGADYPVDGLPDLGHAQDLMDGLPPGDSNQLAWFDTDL
Nature of the assay: Fluorescence polarization IC50 (beta-catenin / 5FAM-TCF4 10-53 competition). The class given is binding. The following applies: fluorescence polarization; read-out: beta-Catenin FP IC50. For orientation: Fluorescence polarisation rises when a labelled molecule tumbles more slowly, as on binding a larger partner.
With `CC(=O)N1CCC[C@]12CC=CCCCC1(CCCC=CCCCOC(=O)N3CC[C@@](C(=O)N[C@@H](Cc4ccsc4)C(=O)N[C@@H](Cc4csc5ccccc45)C(=O)N[C@@H](CC(C)C)C(N)=O)(C3)NC(=O)[C@H](CC(N)=O)NC(=O)[C@H](Cc3ccccc3)NC(=O)[C@H](C)NC(=O)[C@H](C)NC(=O)[C@H]([C@@H](C)O)NC(=O)[C@H](CC(N)=O)NC1=O)NC(=O)[C@H](CC(C)(C)C)NC(=O)[C@H](CC(=O)O)NC2=O` (stereo partly drawn) [I-1880, Ac-PL3-Asp-Npg-B5-Asn-Thr-Ala-Ala-Phe-Asn-PyrS2-3Thi-BztA-Leu-NH2], the half-maximal inhibitory concentration (IC50) was 868 nM.

As for `CC(=O)N1CCC[C@]12CC=CCCCC1(CCCC=CCCCOC(=O)N3CC[C@@](C(=O)N[C@@H](Cc4ccsc4)C(=O)N[C@@H](Cc4csc5ccccc45)C(=O)N[C@@H](CC(C)C)C(N)=O)(C3)NC(=O)[C@H](CC(N)=O)NC(=O)[C@H](Cc3ccccc3)NC(=O)[C@H](C)NC(=O)[C@H](C)NC(=O)[C@H]([C@@H](C)O)NC(=O)[C@H](CC(N)=O)NC1=O)NC(=O)[C@H](CC(C)(C)C)NC(=O)[C@H](CC(=O)O)NC2=O` (stereo partly drawn) [I-1881, Ac-PL3-Asp-Npg-B5-Asn-Thr-Ala-Ala-Phe-Asn-PyrS2-3Thi-BztA-Leu-NH2], the IC50 was determined as 743 nM.

For the compound `CC(=O)N1CCC[C@]12CC=CCCCC1(CCCC=CCCCOC(=O)N3CC[C@@](C(=O)N[C@@H](Cc4ccsc4)C(=O)N[C@@H](Cc4csc5ccccc45)C(=O)N[C@@H](CCC(N)=O)C(N)=O)(C3)NC(=O)[C@H](CCCNC(=N)N)NC(=O)[C@H](Cc3ccccc3)NC(=O)[C@H](C)NC(=O)[C@H](C)NC(=O)[C@H]([C@@H](C)O)NC(=O)[C@H](CC(N)=O)NC1=O)NC(=O)[C@H](CC(C)(C)C)NC(=O)[C@H](CC(=O)O)NC2=O` (stereo partly drawn) [I-1882, Ac-PL3-Asp-Npg-B5-Asn-Thr-Ala-Ala-Phe-Arg-PyrS2-3Thi-BztA-Gln-NH2], the IC50 worked out at 397 nM.

With `CC(=O)N1CCC[C@]12CC=CCCCC1(CCCC=CCCCOC(=O)N3CC[C@@](C(=O)N[C@@H](Cc4ccsc4)C(=O)N[C@@H](Cc4csc5ccccc45)C(=O)N[C@@H](CCC(N)=O)C(N)=O)(C3)NC(=O)[C@H](CCCNC(=N)N)NC(=O)[C@H](Cc3ccccc3)NC(=O)[C@H](C)NC(=O)[C@H](C)NC(=O)[C@H]([C@@H](C)O)NC(=O)[C@H](CC(N)=O)NC1=O)NC(=O)[C@H](CC(C)(C)C)NC(=O)[C@H](CC(=O)O)NC2=O` (stereo partly drawn) [I-1883, Ac-PL3-Asp-Npg-B5-Asn-Thr-Ala-Ala-Phe-Arg-PyrS2-3Thi-BztA-Gln-NH2], the IC50 stood at 884 nM.

With `CC(=O)N1CCC[C@]12CC=CCCCC1(CCCC=CCCCOC(=O)N3CC[C@@](C(=O)N[C@@H](Cc4ccsc4)C(=O)N[C@@H](Cc4csc5ccccc45)C(=O)N[C@@H](CCC(N)=O)C(N)=O)(C3)NC(=O)[C@H](CC(N)=O)NC(=O)[C@H](Cc3ccccc3)NC(=O)[C@H](C)NC(=O)[C@H](C)NC(=O)[C@H]([C@@H](C)O)NC(=O)[C@H](CC(N)=O)NC1=O)NC(=O)[C@H](CC1CCCCC1)NC(=O)[C@H](CC(=O)O)NC2=O` (stereo partly drawn) [I-1884, Ac-PL3-Asp-Cha-B5-Asn-Thr-Ala-Ala-Phe-Asn-PyrS2-3Thi-BztA-Gln-NH2], the IC50 is 249 nM.

With `CC(=O)N1CCC[C@]12CC=CCCCC1(CCCC=CCCCOC(=O)N3CC[C@@](C(=O)N[C@@H](Cc4ccsc4)C(=O)N[C@@H](Cc4csc5ccccc45)C(=O)N[C@@H](CCC(N)=O)C(N)=O)(C3)NC(=O)[C@H](CC(N)=O)NC(=O)[C@H](Cc3ccccc3)NC(=O)[C@H](C)NC(=O)[C@H](C)NC(=O)[C@H]([C@@H](C)O)NC(=O)[C@H](CC(N)=O)NC1=O)NC(=O)[C@H](CC1CCCCC1)NC(=O)[C@H](CC(=O)O)NC2=O` (stereo partly drawn) [I-1885, Ac-PL3-Asp-Cha-B5-Asn-Thr-Ala-Ala-Phe-Asn-PyrS2-3Thi-BztA-Gln-NH2], the IC50 turned out to be 255 nM.

For the compound `CC(=O)N1CCC[C@]12CC=CCCCC1(CCCC=CCCCOC(=O)N3CC[C@@](C(=O)N[C@@H](Cc4ccsc4)C(=O)N[C@@H](Cc4csc5ccccc45)C(=O)N[C@@H](CCC(N)=O)C(N)=O)(C3)NC(=O)[C@H](CC(N)=O)NC(=O)[C@H](Cc3ccccc3)NC(=O)[C@H](C)NC(=O)[C@H](C)NC(=O)[C@H](CCCNC(=N)N)NC(=O)[C@H](CC(N)=O)NC1=O)NC(=O)[C@H](CC(C)(C)C)NC(=O)[C@H](CC(=O)O)NC2=O` (stereo partly drawn) [I-1892, Ac-PL3-Asp-Npg-B5-Asn-Arg-Ala-Ala-Phe-Asn-PyrS2-3Thi-BztA-Gln-NH2], the IC50 amounted to 1420 nM.

In the case of `CC(=O)N1CCC[C@]12CC=CCCCC1(CCCC=CCCCOC(=O)N3CC[C@@](C(=O)N[C@@H](CC4CCCC4)C(=O)N[C@@H](Cc4csc5ccccc45)C(=O)N[C@@H](CO)C(N)=O)(C3)NC(=O)[C@H](CC(C)C)NC(=O)[C@H](Cc3ccccc3)NC(=O)[C@H](C)NC(=O)[C@H](C)NC(=O)[C@H](Cc3cccc(C(=O)O)c3)NC(=O)[C@H](CC(=O)O)NC1=O)NC(=O)[C@H](CC(C)(C)C)NC(=O)[C@H](CC(=O)O)NC2=O` (stereo partly drawn) [I-1896, Ac-PL3-Asp-Npg-B5-Asp-3COOHF-Ala-Ala-Phe-Leu-PyrS2-CypA-BztA-Ser-NH2], the IC50 stood at 75 nM.

Turning to `CC(=O)N1CCC[C@]12CC=CCCCC1(CCCC=CCCCOC(=O)N3CC[C@@](C(=O)N[C@@H](Cc4ccccc4Cl)C(=O)N[C@@H](Cc4csc5ccccc45)C(=O)N[C@@H](CO)C(=O)N[C@@H](C)CO)(C3)NC(=O)[C@H](CC(C)C)NC(=O)[C@H](Cc3ccccc3)NC(=O)[C@H](C)NC(=O)[C@H](C)NC(=O)[C@H](Cc3cccc(C(=O)O)c3)NC(=O)[C@H](CC(=O)O)NC1=O)NC(=O)[C@H](CC(C)(C)C)NC(=O)[C@H](CC(=O)O)NC2=O` (stereo partly drawn) [I-1907, Ac-PL3-Asp-Npg-B5-Asp-3COOHF-Ala-Ala-Phe-Leu-PyrS2-2C1F-BztA-Ser-Alao1], the IC50 turned out to be 23 nM.

As for `CC(=O)N1CCC[C@]12CC=CCCCC1(CCCC=CCCCOC(=O)N3CC[C@@](C(=O)N[C@@H](Cc4ccsc4)C(=O)N[C@@H](Cc4csc5ccccc45)C(=O)N[C@@H](Cc4ccccc4)C(N)=O)(C3)NC(=O)[C@H](CC(C)C)NC(=O)[C@H](Cc3ccccc3)NC(=O)[C@H](C)NC(=O)[C@H](Cc3c[nH]cn3)NC(=O)[C@H](Cc3cccc(C(=O)O)c3)NC(=O)[C@H](CC(=O)O)NC1=O)NC(=O)[C@H](CC(C)(C)C)NC(=O)[C@H](CC(=O)O)NC2=O` (stereo partly drawn) [I-1910, Ac-PL3-Asp-Npg-B5-Asp-3COOHF-His-Ala-Phe-Leu-PyrS2-3Thi-BztA-Phe-NH2], the IC50 stood at 17 nM.

`CC(=O)N1CCC[C@]12CC=CCCCC1(CCCC=CCCCOC(=O)N3CC[C@@](C(=O)N[C@@H](Cc4ccsc4)C(=O)N[C@@H](Cc4csc5ccccc45)C(=O)N[C@@H](CCC(N)=O)C(N)=O)(C3)NC(=O)[C@H](CC(C)C)NC(=O)[C@H](Cc3ccccc3)NC(=O)[C@H](C)NC(=O)[C@H](C)NC(=O)[C@H](CN3CCC[C@H](C(=O)O)C3)NC(=O)[C@H](CC(=O)O)NC1=O)NC(=O)[C@H](CC(C)(C)C)NC(=O)[C@H](CC(=O)O)NC2=O` (stereo partly drawn) [I-1921, Ac-PL3-Asp-Npg-B5-Asp-S3COOPipA-Ala-Ala-Phe-Leu-PyrS2-3Thi-BztA-Gln-NH2]: the IC50 worked out at 22 nM.

As to `CC(=O)N1CCC[C@]12CC=CCCCC1(CCCC=CCCCOC(=O)N3CC[C@@](C(=O)N[C@@H](Cc4ccccc4)C(=O)N[C@@H](Cc4csc5ccccc45)C(=O)N[C@@H](CCO)C(N)=O)(C3)NC(=O)[C@H](CCO)NC(=O)[C@H](Cc3ccccc3)NC(=O)[C@H](C)NC(=O)[C@H](CCCCNC(C)C)NC(=O)[C@H](CCC(N)=O)NC(=O)[C@H](CC(=O)O)NC1=O)NC(=O)[C@H](CC1CCCCC1)NC(=O)[C@H](CC(N)=O)NC2=O` (stereo partly drawn) [I-1922, Ac-PL3-Asn-Cha-B5-Asp-Gln-iPrLys-Ala-Phe-Hse-PyrS2-Phe-BztA-Hse-NH2], the IC50 was determined as 457 nM.

These data come from patent publication US20240116985A1, “STAPLED PEPTIDES AND METHODS THEREOF” (priority 2020, published 2024).
